Laboratory results: publication PMC7084598, “Design, Synthesis, and Biological Evaluation of Two Series of Novel A-Ring Fused Steroidal Pyrazines as Potential Anticancer Agents” (International Journal of Molecular Sciences, 2020)

What was measured:
MCF-7 (breast carcinoma) = experiment: CCK-8 antiproliferative assay, MCF-7; format: cell-based; conditions: Homo sapiens, MCF7, 48 h, CCK8, mean of three independent experiments, NA = no activity, read-out: Inhibitory Ratio (Mean% ± SD%) MCF-7
Method: (§1) All the thirty-six target derivatives (5a–5f, 10a–10o, and 12a–12o) were screened for antiproliferative activities against three human cancer cell lines (MCF-7, PC-3, and HepG2) and cytotoxicity on a normal human cell (THLE-2) at the concentration of 20 μM by using the CCK8 assay.
(§2) Thirty-six novel steroidal A-ring fused pyrazine hybrids were evaluated by Cell Counting Kit-8 (CCK-8) assays, to evaluate their in vitro antiproliferative activities on three human cancer cell lines and one normal cell line: MCF-7 (breast carcinoma), PC-3 (prostate carcinoma), HepG2 (liver hepatocellular carcinoma), and THLE-2 ([…]), with 5-fluorouracil as the positive control.
(§3) Cells (3 × 10^3 cells per well) seeded into 96-well plates (Costar, Shanghai, China) were incubated with Ham’s F-12K containing various concentrations of steroidal pyrazines (5a–5f, 10a–10o, and 12a–12o) for 48 h at 37 °C and 5% COThen, 10 μL of CCK-8 reagent (Beyotime, Shanghai, China) dissolved in PBS (Phosphate buffered saline) was added per well, and continuously incubated at 37 °C for 1 h. Finally, the absorbance of samples taken from each well was measured on a microplate reader at 450 nm. The antiproliferative activities were expressed as inhibitory activity and IC50 values calculated using GraphPad Software 5.0 (GraphPad Software, San Diego, CA, USA), which were the mean values of three independent tests and are shown in Table 1 and Table 2, respectively. The formula used for cell inhibitory rates was (1 - sample absorption/vehicle absorption) × 100%.

[1] = test system: PC-3 (prostate carcinoma); experiment: CCK-8 antiproliferative assay, PC-3; format: cell-based, human; conditions: for inhibition at 20 µM / IC50: Homo sapiens; for inhibition at 20 µM: 48 h, CCK8, mean of three independent experiments, NA = no activity, read-out: Inhibitory Ratio (Mean% ± SD%) PC-3; for IC50: CCK-8, 48 h, triplicate; for SI: Selectivity index = (IC50 of THLE-2)/(IC50 of PC-3): THLE-2 vs PC-3
Method: as §1, §2, §3

[2] = test system: HepG2 (liver hepatocellular carcinoma); experiment: CCK-8 antiproliferative assay, HepG2; format: cell-based; conditions: Homo sapiens, 48 h, CCK8, mean of three independent experiments, NA = no activity, read-out: Inhibitory Ratio (Mean% ± SD%) HepG2
Method: as §1, §2, §3

[3] = test system: THLE-2 (normal human cells); experiment: CCK-8 cytotoxicity on normal cells, THLE-2; format: cell-based; conditions: for inhibition at 20 µM: 48 h, CCK8, NA = no activity, read-out: Inhibitory Ratio (Mean% ± SD%) THLE-2; for IC50: CCK-8, 48 h
Method: as §1, §2, §3

SMILES	inhibition at 20 µM (MCF-7 (breast carcinoma)) [%]	inhibition at 20 µM [1] [%]	inhibition at 20 µM [2] [%]	inhibition at 20 µM [3] [%]	melting point [°C]	IC50 [1] [µM]	SI: Selectivity index = (IC50 of THLE-2)/(IC50 of PC-3) [1]	IC50 [3] [µM]
CC(O)C1CCC2C3CC=C4C(C)(C)c5nc6cc(Br)ccc6nc5CC4(C)C3CCC12C (stereo not drawn) [Compound 10h]	21.2 ± 3.73	21.7 ± 1.27	13.1 ± 0.68	2.39 ± 0.07				
CC(O)C1CCC2C3CC=C4C(C)(C)c5nccnc5CC4(C)C3CCC12C (stereo not drawn) [Compound 10a]	4.99 ± 3.09		6.2 ± 5.25		150 to 152			
CC(O)C1CCC2C3CC=C4C(C)(C)c5nc(C(=O)Nc6ccc(Cl)cc6)cnc5CC4(C)C3CCC12C (stereo not drawn) [Compound 12j]	24.9 ± 4.84	51.1 ± 1.02	23.1 ± 1.27					
O=c1[nH]cc(F)c(=O)[nH]1 [Compound 5-FU, 5-fluorouracil, reference compound]	47.9 ± 1.67	35 ± 1.46	47.7 ± 1.3	51.8 ± 0.69		22.4 ± 0.41	0.58	12.9
CC1(C)C2=CCC3C(CC[C@@]4(C)C3CC[C@@H]4C(=O)O)[C@@]2(C)Cc2nc3ccccc3nc21 (stereo partly drawn) [Compound 5b]		12.5 ± 12.9	7.24 ± 5.83	12.6 ± 1.22				
COc1ccc2nc3c(nc2c1)C(C)(C)C1=CCC2C(CCC4(C)C(C(C)O)CCC24)C1(C)C3 (stereo not drawn) [Compound 10l]	41.6 ± 1.28	30 to 60	33.3 ± 1.13	22.2 ± 2.72				
Cc1cccc(NC(=O)c2cnc3c(n2)C(C)(C)C2=CCC4C(CCC5(C)C(C(C)O)CCC45)C2(C)C3)c1 (stereo not drawn) [Compound 12c]	3.57 ± 1.69	19.9 ± 0.43	7.02 ± 3.1					
CC(O)C1CCC2C3CC=C4C(C)(C)c5nc(C(=O)Nc6ccccc6Cl)cnc5CC4(C)C3CCC12C (stereo not drawn) [Compound 12h]		41.7 ± 4.79	21.9 ± 2.05					
CC(O)C1CCC2C3CC=C4C(C)(C)c5nc(C(=O)Nc6ccccc6F)cnc5CC4(C)C3CCC12C (stereo not drawn) [Compound 12e]	3.28 ± 1.9	47 ± 3.47	17.6 ± 3.19	14 ± 1.47				
CC(O)C1CCC2C3CC=C4C(C)(C)c5nc6ccc(F)cc6nc5CC4(C)C3CCC12C (stereo not drawn) [Compound 10c]	3.85 ± 1.97	24.9 ± 2.12						
Cc1ccc(NC(=O)c2cnc3c(n2)C(C)(C)C2=CCC4C(CCC5(C)C(C(C)O)CCC45)C2(C)C3)cc1 (stereo not drawn) [Compound 12d]	25 ± 3.43	22.6 ± 2.25	16.3 ± 3.72	18.2 ± 6.76				
CC1(C)C2=CCC3C(CC[C@@]4(C)C3CC[C@@H]4C(=O)O)[C@@]2(C)Cc2nc3ccc(O)cc3nc21 (stereo partly drawn) [Compound 5f]	18.4 ± 13.1		24.9 ± 2.3					
CC1(C)C2=CCC3C(CC[C@@]4(C)C3CC[C@@H]4C(=O)O)[C@@]2(C)Cc2nc3cc(O)ccc3nc21 (stereo partly drawn) [Compound 5e]	6.57 ± 0.09							
CC(O)C1CCC2C3CC=C4C(C)(C)c5nc6cc(F)ccc6nc5CC4(C)C3CCC12C (stereo not drawn) [Compound 10d]	21.2 ± 9.12	52.8 ± 0.86	22.4 ± 4.89					
CC1(C)C2=CCC3C(CC[C@@]4(C)C3CC[C@@H]4C(=O)O)[C@@]2(C)Cc2nc3ccc(Br)cc3nc21 (stereo partly drawn) [Compound 5d]	12.4 ± 0.3	30 to 60		2.39 ± 0.65				
Cc1ccccc1NC(=O)c1cnc2c(n1)C(C)(C)C1=CCC3C(CCC4(C)C(C(C)O)CCC34)C1(C)C2 (stereo not drawn) [Compound 12b]	8.12 ± 3.17	20.8 ± 7.04	15.2 ± 5.61	5.15 ± 1.79				
CC(O)C1CCC2C3CC=C4C(C)(C)c5nc6ccc(O)cc6nc5CC4(C)C3CCC12C (stereo not drawn) [Compound 10i]	17.9 ± 6.61	14.2 ± 0.87						

SMILES	inhibition at 20 µM (MCF-7 (breast carcinoma)) [%]	inhibition at 20 µM [1] [%]	inhibition at 20 µM [2] [%]	inhibition at 20 µM [3] [%]	melting point [°C]	IC50 [1] [µM]	SI: Selectivity index = (IC50 of THLE-2)/(IC50 of PC-3) [1]	IC50 [3] [µM]
CC(O)C1CCC2C3CC=C4C(C)(C)c5nc6cc(Cl)ccc6nc5CC4(C)C3CCC12C (stereo not drawn) [Compound 10f]	23.9 ± 1.87	59.6 ± 1.29	32.6 ± 0.41					
CC(O)C1CCC2C3CC=C4C(C)(C)c5nc(C(=O)Nc6cccc(Cl)c6)cnc5CC4(C)C3CCC12C (stereo not drawn) [Compound 12i]	20.2 ± 0.52	35.9 ± 2.97	15.9 ± 2.93					
CC(O)C1CCC2C3CC=C4C(C)(C)c5nc(C(=O)NC6CCCCC6)cnc5CC4(C)C3CCC12C (stereo not drawn) [Compound 12o]	15.1 ± 1.25		24.1 ± 2.34					
CC1(C)C2=CCC3C(CC[C@@]4(C)C3CC[C@@H]4C(=O)O)[C@@]2(C)Cc2nc3cc(Br)ccc3nc21 (stereo partly drawn) [Compound 5c]	6.86 ± 7.46	20.7 ± 12.5		12.5 ± 0.9				
CC(O)C1CCC2C3CC=C4C(C)(C)c5nc(C(=O)Nc6cccc(F)c6)cnc5CC4(C)C3CCC12C (stereo not drawn) [Compound 12f]	0.8 ± 3.31	33.2 ± 4.68	12.8 ± 4.26					
CC(O)C1CCC2C3CC=C4C(C)(C)c5nc(C(=O)Nc6ccc(F)cc6)cnc5CC4(C)C3CCC12C (stereo not drawn) [Compound 12g]	33.4 ± 5.35	> 60		17.6 ± 1.39		6.88 ± 0.04	2.14	14.7
CC(O)C1CCC2C3CC=C4C(C)(C)c5nc(C(=O)Nc6ccccc6)cnc5CC4(C)C3CCC12C (stereo not drawn) [Compound 12a]		24.2 ± 0.94	12.5 ± 12.9					
COc1ccc(NC(=O)c2cnc3c(n2)C(C)(C)C2=CCC4C(CCC5(C)C(C(C)O)CCC45)C2(C)C3)cc1 (stereo not drawn) [Compound 12m]	20 ± 2.33	30 to 60	20.3 ± 3.6	5.68 ± 1.9				
CC(O)C1CCC2C3CC=C4C(C)(C)c5nc6ccc(Cl)cc6nc5CC4(C)C3CCC12C (stereo not drawn) [Compound 10e]		44.8 ± 3.26	25.6 ± 2.51					
CC(O)C1CCC2C3CC=C4C(C)(C)c5nc6ccccc6nc5CC4(C)C3CCC12C (stereo not drawn) [Compound 10b]	9.95 ± 0.55	12.5 ± 12.9	7.24 ± 5.83	4.35 ± 2.27				
COc1ccccc1NC(=O)c1cnc2c(n1)C(C)(C)C1=CCC3C(CCC4(C)C(C(C)O)CCC34)C1(C)C2 (stereo not drawn) [Compound 12k]	17.7 ± 1.01	32.9 ± 1.19	12.9 ± 0.43	4.71 ± 1.25				
CC(O)C1CCC2C3CC=C4C(C)(C)c5nc6ccc(Br)cc6nc5CC4(C)C3CCC12C (stereo not drawn) [Compound 10g]			11.7 ± 2.56					
CC(O)C1CCC2C3CC=C4C(C)(C)c5nc6cc([N+](=O)[O-])ccc6nc5CC4(C)C3CCC12C (stereo not drawn) [Compound 10n]	20 ± 2.56	16.6 ± 3.72	18.7 ± 2.69					
COc1cccc(NC(=O)c2cnc3c(n2)C(C)(C)C2=CCC4C(CCC5(C)C(C(C)O)CCC45)C2(C)C3)c1 (stereo not drawn) [Compound 12l]	13.8 ± 2.32	26.9 ± 1.71	12 ± 1.67					
COc1ccc2nc3c(nc2c1)CC1(C)C(=CCC2C1CCC1(C)C(C(C)O)CCC21)C3(C)C (stereo not drawn) [Compound 10k]	11.2 ± 0.49		29.3 ± 5.38	3.54 ± 2.16				
CC(O)C1CCC2C3CC=C4C(C)(C)c5nc6ccc([N+](=O)[O-])cc6nc5CC4(C)C3CCC12C (stereo not drawn) [Compound 10m]	14.7 ± 0.25	16 ± 0.57	18.2 ± 7.46					
CC(O)C1CCC2C3CC=C4C(C)(C)c5nc6cc(O)ccc6nc5CC4(C)C3CCC12C (stereo not drawn) [Compound 10j]	18.6 ± 0.92	30 to 60						
